Results: publication PMC12011790, “Synergistic chemo-immunotherapy for osteosarcoma via a pH-responsive multi-component nanoparticle system” (Frontiers in Pharmacology, 2025)

Legend:
[1] = test system: LM8 murine osteosarcoma cells; assay: CCK-8 cell viability; type: cell-based; settings: 48 h, pH not stated, mean ± SD, n = 3
Experimental: The LM8 murine osteosarcoma cell line, derived from C3H/He mice, was purchased from HyCyte™ (Suzhou, China). LM8 cells were maintained in Dulbecco’s modified Eagle’s medium (DMEM, Gibco, NY, United States) supplemented with 10% fetal bovine serum (FBS, Gibco). Cells were cultured at 37°C in an incubator under 5% CO2.
LM-8 cells were seeded at a density of 1 × 10^6 cells/mL in a 96-well plate. After 24 h incubation, the culture medium was replaced with 100 μL of medium containing serial dilutions of different treatment samples. After 48 h incubation, 10 μL of the CCK-8 reagent (Dojindo, Kyushu, Japan) was added into each well and incubated for further 2 h at 37°C. The absorbance of each sample was measured at 450 nm using a multifunction microplate reader (Biotek, VT, United States).

[2] = test system: LM8 cells; assay: Calreticulin (CRT) surface exposure, flow cytometry; type: cell-based, murine; settings: 10 μM DOX or equivalent, 24 h, mean ± SEM by Figure 3 legend
Experimental: (§1) The immunogenic cell death (ICD) biomarkers, including calreticulin (CRT), high-mobility group box 1 (HMGB1), and adenosine triphosphate (ATP), were analyzed. LM-8 cells were seeded in 24-well plates at a density of 1 × 10^5 cells per well, and the cells were allowed to grow to an appropriate confluence.
After treatment, the cells were digested, collected, and washed twice with cold PBS. To determine the surface expression of CRT, the cells were blocked with CD16/32 antibody for 10 min, incubated with Alexa 488-anti-CRT antibody (EPR3924, 1:500 v/v, Abcam) for 15 min at 4°C, washed once with PBS, resuspended with PBS, and detected by flow cytometry.

[3] = test system: LM8 cells; assay: Extracellular ATP release, bioluminescence kit; type: cell-based, murine; settings: LM8 culture supernatant, 10 μM DOX or equivalent, 24 h, mean ± SEM by Figure 3 legend
Experimental: as §1
On the other hand, additional sets of cells received identical treatments were employed to determine the released HMGB1 and ATP. Briefly, culture supernatant was collected and centrifuged to remove cell debris. Subsequently, the extracellular HMGB1 was quantified using an enzyme-linked immunosorbent assay (ELISA) kits (R&D systems, China), whereas the supernatant ATP was quantified using a bioluminescence kit (No. S0026, Beyotime, China) and measured by a multifunction microplate reader.

[4] = test system: LM8 osteosarcoma; assay: Antitumor efficacy in LM8-bearing osteosarcoma model; type: in vivo; settings: LM8-bearing C3H/HeJ mice, tail vein, DOX equivalent 10 mg/kg every other day, 7 doses, n = 5
Experimental: To investigate the in vivo antitumor effects, male C3H/HeJ mice (8–10 weeks old) were purchased from GemPharmatech (Nanjing, China). All animal experiments were conducted with the relevant institutional guidelines of Jiangsu University, and were approved by the Institutional Animal Care And Use Committees of Jiangsu University (UJS-IACUC-2024080202).
[…] LM8-bearing OS model was established by injected subcutaneously 1 × 10^7 LM8 cells into the backs of mice. Tumor growth was allowed to proceed for approximately 7 days prior to treatment until the tumors reached a measurable size. Tumor size was monitored using a caliper, with tumor volume calculated according to the formula: (length × width^2)/2.
(§2) Each group received the corresponding treatment via tail vein injection, with a DOX equivalent dose of 10 mg/kg administered every other day for a total of 7 doses. Tumor volume and mouse body weight were recorded every other day during the treatment. On day 14, the mice were euthanized under anesthesia, and the tumors were excised and weighed for further analysis. The tumor was further stained with hematoxylin and eosin (H&E) after mice sacrificed.

[5] = Body weight during treatment (systemic toxicity); type: in vivo, C3H/HeJ mice; settings: LM8-bearing mice; tail vein, DOX equivalent 10 mg/kg every other day, 7 doses
Experimental: as §2

[6] = test system: immune cell populations in the tumor, and tumor-draining lymph nodes; assay: Flow cytometric immune cell profiling of tumor and tumor-draining lymph nodes; type: in vivo, C3H/HeJ mice; settings: post-treatment, flow cytometry
Text: Flow cytometry was applied to characterize the change in immune cell populations in the tumor, and tumor-draining lymph nodes (TDLNs). Excised tumors were harvested, homogenized and consecutively strained through 70-μm filters to obtain single cell suspensions, while the lymph nodes were manually dissociated through a 40-μm filter to obtain a single cell suspension. Cells were stained with fluorescent antibodies to identify immune cell pollutions.
Single-cell suspensions of TDLNs were stained with CD11c (clone N418; Biolegend), CD80 (clone 16-10A1; Biolegend), CD86 (clone GL1; Biolegend) for the analysis of mature DCs.
Single-cell suspensions of tumor tissues were stained with CD3 (clone 145-2C11; BD), CD4 (clone RM4-5; BD), CD8 (clone 53–6.7; Biolegend), CD62L (clone MEL-14; Biolegend), or CD44 (clone 1M7; Biolegend) antibodies for flow cytometry analysis. For intracellular cytokine and marker staining, after extracellular staining, cells were fixed and permeabilized with BD Cytofix/Cytoperm kit (BD Biosciences) and incubated with fluorescently conjugated antibodies against IFNγ (clone XMG1.2; Biolegend) or granzyme B (clone GB11; Biolegend) antibodies. […] Samples were run on a Beckman Coulter Gallios™ flow cytometer and analyzed using FlowJo software.

[7] = cumulative doses exceeding 550 mg/m^2; ref Alberts and Garcia, 1997; Treat et al., 1990; cited from earlier work
Text: A major challenge in OS treatment lies in the toxicity associated with conventional chemotherapeutic agents. […] Although reducing DOX dosage can alleviate the cardiotoxicity, this reduction risks compromising the therapeutic efficacy, particularly its ability to induce immunogenic cell ...

[8] = Stability (retention) of the PD-1/PD-L1 peptide in PBS and FBS-containing PBS, HPLC; type: in vitro ADME; settings: 48 h; for peptide content remaining: peptide conjugated in co-loaded nanoparticles, FBS-containing PBS (50% FBS), mean ± SD, n = 3, SD
Text: […] Peptide content was quantified using high-performance liquid chromatography (HPLC). This analysis aimed to determine peptide degradation in PBS and FBS-containing media, considering the potential influence of protease activity present in serum.

Compound | IC50 [1] [µM] | CRT exposure (% of cells) [2] | extracellular ATP level [3] [nM] | tumor growth (tumor volume) ([4]; 14 days) | tumor mass at end of study ([4]; day 14) | body weight change [5] | infiltrated CTLs (CD3+CD8+) in tumor tissue [6] | long-term survivors affected by cardiotoxicity [7] | peptide remaining intact ([8]; peptide conjugated as DSPE-PEG-peptide in co-loaded nanoparticles, PBS, 37°C, n = 3) | peptide content remaining ([8]; 25°C) | peptide content remaining ([8]; 37°C)
COc1cccc2c1C(=O)c1c(O)c3c(c(O)c1C2=O)C[C@@](O)(C(=O)CO)C[C@@H]3O[C@H]1C[C@H](N)[C@H](O)[C@H](C)O1.Cl [free DOX, Doxorubicin hydrochloride] | 13.3 ± 1.24 | 73.04% ± 6.35% | 266.05 ± 42.73 | moderate reduction in tumor growth | moderate reductions in tumor mass | significant weight loss | moderate CTLs infiltration | approximately 30% |  |  | 
CGGGGSHFSASYDKYAEKF [PD-1/PD-L1 targeting peptide] |  |  |  |  |  |  |  |  | over 90% | 78.57% ± 0.81% | 72.32% ± 1.26%
